What all share (assay type): biochemical
What all share (conditions): Gly-Pro-pNA 0.4 mM, HEPES pH 7.6, 30° C.

The target of one test is T1, purified porcine DP IV (Sus scrofa, UniProt P22411).
T1 construct: purified porcine DP IV; from tissue; host or cells: porcine kidney
In words: IC50 of DP IV inhibition, porcine kidney enzyme (Gly-Pro-pNA substrate). Here is the method:
(§1) 100 μl inhibitor stock solution were mixed with 100 μl buffer (HEPES pH 7.6) and 50 μl substrate (Gly-Pro-pNA, final concentration 0.4 mM) and preincubated at 30° C. Reaction was started by addition of 20 μl enzyme solution (either purified porcine DP IV, human recombinant DP IV, human recombinant DP II or human recombinant DP9). Formation of the product pNA was measured at 405 nm over 10 min using the HTS 7000Plus plate reader (Perkin Elmer) and slopes were calculated. The final inhibitor concentrations ranged between 1 mM and 30 nM.
(§2) For calculation of IC50-values GraFit 4.0.13 (Erithacus Software) was used.

The target of a further test is human recombinant DP IV (Homo sapiens, UniProt P27487). The test is described as follows: IC50 of DP IV inhibition, human recombinant enzyme (Gly-Pro-pNA substrate). As to the method:
as §1, §2

A further test has as its target human recombinant DP II (Homo sapiens, UniProt Q9UHL4). In words: IC50 of DP II inhibition, human recombinant enzyme (Gly-Pro-pNA substrate). Here is the method: as §1, §2
A further test deals with human recombinant DP9 (Homo sapiens, UniProt Q86TI2). The test is described as follows: IC50 of DP9 inhibition, human recombinant enzyme (Gly-Pro-pNA substrate). Here is the method:
as §1, §2

This passage reports IC50 results from patent US7625939B2, “Cyclopropyl-fused pyrrolidine derivatives as dipeptidyl peptidase IV inhibitors” (Probiodrug AG, priority 2005, dated 2009).

T1 sequence (P22411 whole entry): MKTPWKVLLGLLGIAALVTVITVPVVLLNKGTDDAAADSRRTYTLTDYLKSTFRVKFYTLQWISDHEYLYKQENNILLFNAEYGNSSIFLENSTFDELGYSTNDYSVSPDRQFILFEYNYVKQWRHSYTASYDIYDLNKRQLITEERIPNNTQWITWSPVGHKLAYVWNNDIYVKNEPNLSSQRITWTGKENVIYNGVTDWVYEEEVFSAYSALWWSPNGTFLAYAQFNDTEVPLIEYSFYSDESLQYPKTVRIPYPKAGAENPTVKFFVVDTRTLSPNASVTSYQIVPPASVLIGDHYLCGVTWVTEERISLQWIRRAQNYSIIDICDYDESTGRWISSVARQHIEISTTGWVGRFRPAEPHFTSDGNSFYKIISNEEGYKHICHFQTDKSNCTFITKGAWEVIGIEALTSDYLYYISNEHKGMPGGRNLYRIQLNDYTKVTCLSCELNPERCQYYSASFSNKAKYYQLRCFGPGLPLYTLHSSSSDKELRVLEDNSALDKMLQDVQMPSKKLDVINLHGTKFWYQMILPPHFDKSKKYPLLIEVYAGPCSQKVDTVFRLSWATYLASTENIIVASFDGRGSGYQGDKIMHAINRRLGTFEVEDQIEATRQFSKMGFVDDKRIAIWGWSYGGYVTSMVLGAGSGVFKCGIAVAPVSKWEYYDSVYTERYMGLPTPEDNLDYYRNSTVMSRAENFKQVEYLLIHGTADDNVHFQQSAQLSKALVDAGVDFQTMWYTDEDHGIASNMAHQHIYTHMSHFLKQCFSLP
Chain of human recombinant DP9 (Q86TI2 whole entry): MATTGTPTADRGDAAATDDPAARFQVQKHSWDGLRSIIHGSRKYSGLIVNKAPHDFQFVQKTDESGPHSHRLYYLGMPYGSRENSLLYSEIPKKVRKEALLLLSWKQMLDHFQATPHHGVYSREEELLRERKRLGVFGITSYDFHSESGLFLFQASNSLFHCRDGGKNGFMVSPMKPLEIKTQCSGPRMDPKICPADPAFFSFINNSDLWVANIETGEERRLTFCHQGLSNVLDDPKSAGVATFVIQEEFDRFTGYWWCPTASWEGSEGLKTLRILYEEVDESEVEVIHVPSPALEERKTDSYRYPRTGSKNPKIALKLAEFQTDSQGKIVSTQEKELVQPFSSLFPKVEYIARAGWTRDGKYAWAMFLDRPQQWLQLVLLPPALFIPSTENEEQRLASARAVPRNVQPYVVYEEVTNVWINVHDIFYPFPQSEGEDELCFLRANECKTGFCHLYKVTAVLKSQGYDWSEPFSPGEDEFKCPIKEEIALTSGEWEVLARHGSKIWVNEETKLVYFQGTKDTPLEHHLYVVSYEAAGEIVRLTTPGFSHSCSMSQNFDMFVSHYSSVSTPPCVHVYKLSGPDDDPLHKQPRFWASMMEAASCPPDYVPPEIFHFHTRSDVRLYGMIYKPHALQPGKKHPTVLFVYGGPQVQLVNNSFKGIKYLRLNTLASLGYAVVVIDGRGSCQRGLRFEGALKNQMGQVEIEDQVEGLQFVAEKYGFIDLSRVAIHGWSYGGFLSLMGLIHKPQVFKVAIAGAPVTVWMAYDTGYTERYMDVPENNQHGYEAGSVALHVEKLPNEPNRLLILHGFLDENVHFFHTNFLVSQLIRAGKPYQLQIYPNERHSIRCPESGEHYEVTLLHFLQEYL
Chain of human recombinant DP IV (P27487 whole entry): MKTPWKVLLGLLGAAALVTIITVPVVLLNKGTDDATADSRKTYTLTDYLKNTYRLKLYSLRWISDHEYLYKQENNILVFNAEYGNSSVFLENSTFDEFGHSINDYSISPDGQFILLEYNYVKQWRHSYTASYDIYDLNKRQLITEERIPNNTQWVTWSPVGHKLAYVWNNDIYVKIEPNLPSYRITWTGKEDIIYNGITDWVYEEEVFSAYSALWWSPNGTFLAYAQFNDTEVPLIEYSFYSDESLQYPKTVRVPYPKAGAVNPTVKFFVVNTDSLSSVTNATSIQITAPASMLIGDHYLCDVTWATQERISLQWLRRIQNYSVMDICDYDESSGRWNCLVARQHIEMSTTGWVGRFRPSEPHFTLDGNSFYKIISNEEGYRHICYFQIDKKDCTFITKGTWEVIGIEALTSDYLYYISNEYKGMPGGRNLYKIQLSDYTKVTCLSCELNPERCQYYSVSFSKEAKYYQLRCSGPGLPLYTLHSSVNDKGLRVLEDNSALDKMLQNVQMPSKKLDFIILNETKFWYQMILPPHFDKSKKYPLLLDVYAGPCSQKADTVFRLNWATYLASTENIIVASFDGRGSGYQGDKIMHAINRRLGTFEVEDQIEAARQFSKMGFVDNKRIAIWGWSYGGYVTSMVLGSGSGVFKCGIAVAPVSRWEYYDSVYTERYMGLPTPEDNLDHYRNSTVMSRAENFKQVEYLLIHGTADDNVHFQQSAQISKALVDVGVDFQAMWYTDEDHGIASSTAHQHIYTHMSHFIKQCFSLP

The term IC50 denotes the concentration at which inhibition is half-maximal. For `CC(C)(C)[C@H](N)C(=O)N1CC2CC2C1B(O)O` (stereo partly drawn) [Example 2], the IC50 against purified porcine DP IV was determined as 10.2 nM; on human recombinant DP IV, 75 nM; on human recombinant DP II, 21.1 µM; at human recombinant DP9, 18.4 nM.
As for `CC[C@H](C)[C@H](N)C(=O)N1CC2CC2C1B(O)O` (stereo partly drawn) [Example 3], the IC50 on purified porcine DP IV amounted to 9.46 nM; at human recombinant DP IV it was 45.1 nM; at human recombinant DP II it was 1.47 µM; on human recombinant DP9, 10.8 nM.
With `CC(C)[C@H](N)C(=O)N1CC2CC2C1B(O)O` (stereo partly drawn) [Example 1], the IC50 came out at 3.53 nM on purified porcine DP IV, 31.6 nM at human recombinant DP IV, 3.82 µM at human recombinant DP II and 15.9 nM on human recombinant DP9.
